Experimental data: patent EP2832348B1, “METHOD FOR DISSOLVING FLAVONOID COMPOUND, CARBON GLYCOSIDE COMPOUND, OR STILBENE COMPOUND AND METHOD FOR PREPARING AN INJECTION OR A POWDER FOR INJECTION” (Kunming Pharmaceutical Corp., priority 2012, dated 2013)

Experiment: Dissolving the compound with solubilizer in heated, vacuum-stirred water for injection under nitrogen or argon gas (preparation tank)
Format: physicochemical
Conditions: kept at 80 °C
Description: In view of this, the present invention provides a method for dissolving a carbon glycoside compound or a stilbene compound, characterized in that the method comprises the following steps: • heating water for injection to 80-98 °C, followed by stirring under vacuum condition at 30-80 °C, and then adding the carbon glycoside compound or the stilbene compound along with a solubilizer under the protection of nitrogen gas or argon gas to obtain a solution of said compounds; • wherein the solubilizer is one or a mixture of two or more of gastrodin, water-soluble cyclodextrin and ethanol, and wherein the water-soluble cyclodextrin is one or a mixture of two or more of methyl-β-cyclodextrin, thioether-β-cyclodextrin and sulfobutyl ether-β-cyclodextrin; and • wherein the mass ratio of the carbon glycoside compound or the stilbene compound to the solubilizer is 1:1-20.
Disclosed is a method for dissolving a flavonoid compound, a carbon glycoside compound or a stilbene compound, including: • mixing the flavonoid compound, the carbon glycoside compound or the stilbene compound with a solubilizer to obtain a reactant; and • heating water for injection to 80-98 °C, followed by stirring under vacuum conditions at 30-80 °C, and then adding the reactant under the protection of nitrogen gas or argon gas to obtain a solution of the reactant.
Considering the sensitivity to heat or light of the flavonoid compound, the carbon glycoside compound or the stilbene compound, a method is provided by heating water for injection to 80-98 °C to remove dissolved oxygen and other gases in water, which reduces the surface tension of water, increases the contact area of water with the flavonoid compound, the carbon glycoside compound or the stilbene compound, thus increasing the dissolution speed. Meanwhile, pre-heating the water for injection can effectively avoid degradation of the flavonoid compound, the carbon glycoside compound or the stilbene compound due to exposure to the dissolved oxygen, to eliminate unstable factors of the flavonoid compound, the carbon glycoside compound or the stilbene compound. The vacuum conditions can achieve further deoxygenation, facilitating the dissolution of the flavonoid compound, the carbon glycoside compound or the stilbene compound in water. Nitrogen gas or argon gas provides an inert atmosphere, which further reduces the surface tension of the materials, increases the contact area of the flavonoid compound, the carbon glycoside compound or the stilbene compound with water, and increases the dissolution speed.

OC[C@H]1O[C@@H](Oc2cc(O)cc(/C=C/c3ccc(O)cc3)c2)[C@H](O)[C@@H](O)[C@@H]1O [Polydatin]
dissolved in (time) (Example 41: 25 g with Gastrodin 80 g, Sulfobutyl ether-β-cyclodextrin 30 g in 1000 ml, water heated to 85 °C, vacuum stirring 45 minutes, nitrogen gas): about 5 minutes | dissolved in (time) (Example 46: 5 g with Hydroxypropyl-β-cyclodextrin 30 g in 1000 ml, water heated to 83 °C, vacuum stirring 25 minutes, nitrogen gas): about 5 minutes | dissolved in (time) (Example 54: 10 g with Hydroxypropyl-β-cyclodextrin 50 g in 1000 ml, water heated to 95 °C, vacuum stirring 10 minutes, nitrogen gas): about 5 minutes | dissolved in (time) (Example 64: 5 g with Gastrodin 100 g in 1000 ml, water heated to 95 °C, vacuum stirring 10 minutes, nitrogen gas): about 5 minutes

O=c1c(O)c(-c2ccc(O)c(O)c2)oc2cc(O)cc(O)c12 [Quercetin]
dissolved in (time) (Example 3: 25 g with Gastrodin 100 g, Methyl-β-cyclodextrin 50 g, Sodium carbonate 1 g in 1000 ml, water heated to 95 °C, vacuum stirring 1 minute, argon gas): about 5 minutes

Taxinine
dissolved in (time) (Example 16: 12 g with Sulfobutyl ether-β-cyclodextrin 40 g in 1000 ml, water heated to 95 °C, vacuum stirring 10 minutes, nitrogen gas): about 5 minutes

O=c1cc(-c2ccccc2)oc2cc(O)c(O)c(O)c12 [Baicalein]
dissolved in (time) (Example 9: 10 g with Sulfobutyl ether-β-cyclodextrin 50 g, Sodium bicarbonate 1 g in 1000 ml, water heated to 90 °C, vacuum stirring 20 minutes, argon gas): about 5 minutes

Breviscapine
dissolved in (time) (Example 1: 5 g with Gastrodin 100 g, Sodium carbonate 10 g in 1000 ml, water heated to 95 °C, vacuum stirring 10 minutes, nitrogen gas): about 5 minutes | dissolved in (time) (Example 2: 25 g with Gastrodin 100 g, Hydroxypropyl-β-cyclodextrin 50 g, Sodium carbonate 1 g in 1000 ml, water heated to 95 °C, vacuum stirring 10 minutes, argon gas): about 5 minutes | dissolved in (time) (Example 8 (formula: Wogonin 10 g) with Thioether-β-cyclodextrin 50 g, Sodium bicarbonate 1 g in 1000 ml, water heated to 85 °C, vacuum stirring 30 minutes, argon gas): about 5 minutes

O=C1CC(c2ccccc2)Oc2cc(O)c(O)c(O)c21 (centres unmarked) [Dihydrobaicalein]
dissolved in (time) (Example 13: 5 g with Gastrodin 100 g, Disodium edetate 0.1 g, Sodium carbonate 3 g in 1000 ml, water heated to 90 °C, vacuum stirring 25 minutes, nitrogen gas): about 5 minutes

O=C1c2c(O)cccc2C([C@@H]2O[C@H](CO)[C@@H](O)[C@H](O)[C@H]2O)c2cc(CO)cc(O)c21 (some centres unmarked) [Barbaloin]
dissolved in (time) (Example 19: 25 g with Gastrodin 100 g, Methyl-β-cyclodextrin 50 g, Sodium bicarbonate 1 g in 1000 ml, water heated to 95 °C, vacuum stirring 10 minutes, argon gas): about 10 minutes | dissolved in (time) (Example 23: 10 g with Methyl-β-cyclodextrin 50 g, Sodium bicarbonate 1 g in 1000 ml, water heated to 98 °C, vacuum stirring 10 minutes, argon gas): about 5 minutes | dissolved in (time) (Example 30: 5 g with Gastrodin 100 g, Disodium edetate 0.1 g in 1000 ml, water heated to 95 °C, vacuum stirring 10 minutes, nitrogen gas): about 10 minutes

O=c1c(-c2ccc(O)cc2)coc2c([C@@H]3O[C@H](CO)[C@@H](O)[C@H](O)[C@H]3O)c(O)ccc12 [Puerarin]
dissolved in (time) (Example 5: 25 g with Gastrodin 100 g, Sulfobutyl ether-β-cyclodextrin 50 g, Sodium carbonate 1 g in 1000 ml, water heated to 95 °C, vacuum stirring 3 minutes, argon gas): about 5 minutes | dissolved in (time) (Example 6 (formula: Daidzin 10 g) with Hydroxypropyl-β-cyclodextrin 50 g, Sodium bicarbonate 1 g in 1000 ml, water heated to 95 °C, vacuum stirring 8 minutes, argon gas): about 5 minutes

CC(=O)Cc1cc(=O)c2c(C)cc(O)c([C@@H]3O[C@H](CO)[C@@H](O)[C@H](O)[C@H]3O)c2o1 [Aloesin]
dissolved in (time) (Example 22: 10 g with Hydroxypropyl-β-cyclodextrin 50 g, Sodium bicarbonate 1 g in 1000 ml, water heated to 88 °C, vacuum stirring 35 minutes, argon gas): about 5 minutes | dissolved in (time) (Example 26: 5 g with Gastrodin 100 g, Disodium edetate 0.1 g in 1000 ml, water heated to 95 °C, vacuum stirring 10 minutes, nitrogen gas): about 10 minutes

COc1ccc(/C=C/c2cc(O)cc(O[C@@H]3O[C@H](CO)[C@@H](O)[C@H](O)[C@H]3O)c2)cc1O [Rhapontin]
dissolved in (time) (Example 42: 50 g with Gastrodin 100 g, Hydroxypropyl-β-cyclodextrin 30 g in 1000 ml, water heated to 95 °C, vacuum stirring 10 minutes, nitrogen gas): about 5 minutes | dissolved in (time) (Example 48: 5 g with Thioether-β-cyclodextrin 30 g in 1000 ml, water heated to 92 °C, vacuum stirring 40 minutes, nitrogen gas): about 5 minutes | dissolved in (time) (Example 56: 10 g with Thioether-β-cyclodextrin 50 g in 1000 ml, water heated to 95 °C, vacuum stirring 10 minutes, nitrogen gas): about 5 minutes | dissolved in (time) (Example 66: 5 g with Gastrodin 100 g in 1000 ml, water heated to 95 °C, vacuum stirring 10 minutes, nitrogen gas): about 5 minutes

Oc1ccc2c(c1)OC[C@H]1c3cc4c(cc3O[C@@H]21)OCO4 [Maackiain]
dissolved in (time) (Example 12: 5 g with Gastrodin 100 g, Disodium edetate 0.1 g, Sodium carbonate 3 g in 1000 ml, water heated to 95 °C, vacuum stirring 10 minutes, nitrogen gas): about 5 minutes

COc1ccc(-c2oc3cc(O)cc(O)c3c(=O)c2O)cc1 [Kaempferide]
dissolved in (time) (Example 4: 25 g with Gastrodin 100 g, Thioether-β-cyclodextrin 50 g, Sodium carbonate 1 g in 1000 ml, water heated to 98 °C, vacuum stirring 5 minutes, argon gas): about 5 minutes

O=c1cc(-c2ccc(O)c(O)c2)oc2cc(O)c([C@@H]3O[C@H](CO)[C@@H](O)[C@H](O)[C@H]3O)c(O)c12 [Homoorientin]
dissolved in (time) (Example 20: 25 g with Gastrodin 100 g, Thioether-β-cyclodextrin 50 g, Sodium bicarbonate 1 g in 1000 ml, water heated to 80 °C, vacuum stirring 60 minutes, argon gas): about 10 minutes | dissolved in (time) (Example 24: 10 g with Thioether-β-cyclodextrin 50 g, Sodium bicarbonate 1 g in 1000 ml, water heated to 95 °C, vacuum stirring 10 minutes, argon gas): about 5 minutes

COc1c(O)cc2c(c1O)[C@@H]1O[C@H](CO)[C@@H](O)[C@H](O)[C@H]1OC2=O [Bergenin]
dissolved in (time) (Example 21: 25 g with Gastrodin 100 g, Sulfobutyl ether-β-cyclodextrin 50 g, Sodium bicarbonate 1 g in 1000 ml, water heated to 85 °C, vacuum stirring 50 minutes, argon gas): about 10 minutes | dissolved in (time) (Example 25: 10 g with Sulfobutyl ether-β-cyclodextrin 50 g, Sodium bicarbonate 1 g in 1000 ml, water heated to 95 °C, vacuum stirring 10 minutes, argon gas): about 5 minutes | dissolved in (time) (Example 28: 5 g with Gastrodin 100 g, Disodium edetate 0.1 g in 1000 ml, water heated to 95 °C, vacuum stirring 10 minutes, nitrogen gas): about 10 minutes

O=C1C[C@@H](c2ccc(O)cc2)Oc2cc(O)cc(O)c21 [Naringenin]
dissolved in (time) (Example 14: 5 g with Gastrodin 100 g, Disodium edetate 0.1 g, Sodium carbonate 2 g in 1000 ml, water heated to 98 °C, vacuum stirring 10 minutes, nitrogen gas): about 5 minutes

O=C(O)[C@H]1O[C@@H](Oc2cc3oc(-c4ccccc4)cc(=O)c3c(O)c2O)[C@H](O)[C@@H](O)[C@@H]1O [Baicalin]
dissolved in (time) (Example 10: 5 g with Gastrodin 100 g, Disodium edetate 0.1 g, Sodium carbonate 5 g in 1000 ml, water heated to 95 °C, vacuum stirring 10 minutes, nitrogen gas): about 5 minutes

Oc1ccc(C=Cc2cc(O)cc(O)c2)cc1 [Resveratrol]
dissolved in (time) (Example 39: 25 g with Gastrodin 80 g, Methyl-β-cyclodextrin 30 g in 1000 ml, water heated to 80 °C, vacuum stirring 60 minutes, nitrogen gas): about 5 minutes | dissolved in (time) (Example 44: 50 g with Gastrodin 100 g, Thioether-β-cyclodextrin 30 g in 1000 ml, water heated to 95 °C, vacuum stirring 10 minutes, nitrogen gas): about 5 minutes | dissolved in (time) (Example 50: 10 g with Hydroxypropyl-β-cyclodextrin 30 g in 1000 ml, water heated to 95 °C, vacuum stirring 10 minutes, nitrogen gas): about 5 minutes | dissolved in (time) (Example 60: 20 g with Thioether-β-cyclodextrin 50 g in 1000 ml, water heated to 95 °C, vacuum stirring 10 minutes, nitrogen gas): about 5 minutes

COc1ccc(/C=C/c2cc(O)cc(O[C@@H]3O[C@H](CO)[C@@H](O)[C@H](O)[C@H]3O)c2)cc1 [Deoxyrhapontin (methyl polydatin), Deoxyrhapontin]
dissolved in (time) (Example 43: 50 g with Gastrodin 100 g, Methyl-β-cyclodextrin 30 g in 1000 ml, water heated to 98 °C, vacuum stirring 15 minutes, nitrogen gas): about 5 minutes | dissolved in (time) (Example 49: 5 g with Sulfobutyl ether-β-cyclodextrin 30 g in 1000 ml, water heated to 95 °C, vacuum stirring 10 minutes, nitrogen gas): about 5 minutes | dissolved in (time) (Example 57: 10 g with Hydroxypropyl-β-cyclodextrin 50 g (formula; text: sulfobutyl ether-β-cyclodextrin) in 1000 ml, water heated to 95 °C, vacuum stirring 10 minutes, nitrogen gas): about 5 minutes | dissolved in (time) (Example 67: 5 g with Gastrodin 100 g in 1000 ml, water heated to 95 °C, vacuum stirring 10 minutes, nitrogen gas): about 5 minutes

COc1ccc([C@@H]2CC(=O)c3c(O)cc(O)cc3O2)cc1O [Hesperetin]
dissolved in (time) (Example 15: 5 g with Gastrodin 100 g, Disodium edetate 0.1 g, Sodium carbonate 2 g in 1000 ml, water heated to 95 °C, vacuum stirring 10 minutes, nitrogen gas): about 5 minutes

O=c1c(-c2ccc(O)cc2)coc2cc(O)ccc12 [Daidzein]
dissolved in (time) (Example 7: 10 g with Methyl-β-cyclodextrin 50 g, Sodium bicarbonate 1 g in 1000 ml, water heated to 80 °C, vacuum stirring 60 minutes, argon gas): about 5 minutes
